From patent publication US12018001B2, “Pyrimidine cyclohexenyl glucocorticoid receptor modulators” (priority 2018, dated 2024) come the findings set out here.

The nature of data set [1]: Rat pharmacokinetics (PK) studies, oral gavage cassette. Format: in vivo, male Sprague Dawley rats. The following applies: male, Sprague Dawley (or equivalent), rat plasma; for AUC(0-t): read-out: AUC0-24. As to the method: Rat PK studies were conducted in male Sprague Dawley rats (or equivalent) with 3 rats per group. Compounds were evaluated in cassettes of 4 compounds per cassette, with each cassette containing 3 test compounds and one comparator compound with known PK parameters. Rats were cannulated in the jugular vein. The compounds were administered by oral gavage using a suitable vehicle, such as 10% DMSO and 90% methyl cellulose. Compounds of Example 1, Example 10, Example 14, and Example 20 were evaluated with a nominal dose of 1.25 mg/kg and the compound of Example 32 was evaluated with a nominal dose of 3 mg/kg. Blood samples were collected at various timepoints out to 24 hours post-dose and processed to provide plasma. Compound concentrations in the plasma samples were determined by LC/MS analysis. Cmax and AUC were calculated using WinNonlin.

The target in a further data set is T1, glucocorticoid receptor (Homo sapiens, UniProt P04150).
T1 construct: host or cells: HepG2
T1 sequence (P04150 1-777): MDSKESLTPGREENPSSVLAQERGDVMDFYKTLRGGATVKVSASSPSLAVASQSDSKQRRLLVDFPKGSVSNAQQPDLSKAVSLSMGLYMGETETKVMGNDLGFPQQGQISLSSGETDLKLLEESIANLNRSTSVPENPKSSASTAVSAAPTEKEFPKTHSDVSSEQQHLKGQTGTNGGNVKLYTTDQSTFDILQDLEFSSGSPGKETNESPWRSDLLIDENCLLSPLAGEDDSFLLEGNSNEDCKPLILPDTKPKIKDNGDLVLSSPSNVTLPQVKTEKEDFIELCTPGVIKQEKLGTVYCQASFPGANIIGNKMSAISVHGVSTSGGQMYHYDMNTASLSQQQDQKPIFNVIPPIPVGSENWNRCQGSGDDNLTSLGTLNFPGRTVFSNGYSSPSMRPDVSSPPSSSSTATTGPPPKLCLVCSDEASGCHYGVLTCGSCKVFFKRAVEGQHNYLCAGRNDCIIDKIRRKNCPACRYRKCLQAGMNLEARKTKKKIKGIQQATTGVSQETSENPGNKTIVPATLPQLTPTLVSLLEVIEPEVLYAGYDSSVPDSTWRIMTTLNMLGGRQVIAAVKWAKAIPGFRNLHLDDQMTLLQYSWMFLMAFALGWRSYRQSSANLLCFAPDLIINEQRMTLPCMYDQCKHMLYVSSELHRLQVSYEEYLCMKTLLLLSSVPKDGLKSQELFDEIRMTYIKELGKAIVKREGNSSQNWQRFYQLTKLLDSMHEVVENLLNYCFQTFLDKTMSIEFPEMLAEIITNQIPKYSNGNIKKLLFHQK
Briefly: Hep G2 TAT assay: induction of TAT by dexamethasone in HepG2 cells. The data set is classed as cell-based.

pKi: −log10 of the molar value. Like-named read-outs stand apart in the source and are kept apart here.

The term Cmax denotes the maximum level reached in the sampled fluid or tissue. What is called pKi is the Ki on a negative log10 scale, so that one unit is a factor of ten. Low readings indicate a large Ki, high ones a small Ki. Regarding `O=c1[nH]c(C2CC=C(c3cccnc3C(F)(F)F)CC2)c(Cc2ccccc2)c(=O)[nH]1` (stereo not drawn) [Example 14], in data set [1] (nominal dose 1.25 mg/kg), the Cmax turned out to be 63 ng/mL and the AUC(0-t) worked out at 188 ng·h/mL. This molecule also gave a pKi at glucocorticoid receptor of 7.39.
On to `COc1cc(C#N)ccc1C1=CCC(c2[nH]c(=O)[nH]c(=O)c2Cc2ccccc2)CC1` (stereo not drawn) [Example 20], for which, in data set [1] (nominal dose 1.25 mg/kg), the peak concentration (Cmax) is 83.6 ng/mL and the AUC(0-t) came to 375 ng·h/mL. On glucocorticoid receptor, this molecule gave a pKi of 7.48.
Regarding `N#Cc1ccc(C2=CCC(c3[nH]c(=O)[nH]c(=O)c3Cc3ccccc3)CC2)c(C(F)(F)F)c1` (stereo not drawn) [Example 32], in data set [1] (nominal dose 3 mg/kg), the Cmax turned out to be 453 ng/mL and the AUC(0-t) was 988 ng·h/mL. The molecule further had a negative-log Ki (pKi) on glucocorticoid receptor of 7.18.
